Reference: patent US9017645B2, “Homoglutamic acid derivatives” (Piramal Imaging SA, priority 2009, dated 2015)

Tested on: H460 tumor bearing mice
Assay: Biodistribution in H460 tumor bearing mice
Type: in vivo, NMRI (nu/nu) mice
Conditions: for summary: urine: in %; for summary: carcass / summary: organs / summary: recovery: in % (unit assumed)
Protocol: Biodistribution in H460 tumor bearing mice. To test the pharmacokinetic properties of (2S)-2-amino-5-[3-[^18F]fluoropropyl]hexanedioic acid, the fluorinated compound was examined in H460 tumor bearing mice. NMRI (nu/nu) mice were inoculated with H460 tumor cells 8 to 10 days before the biodistribution studies. 185 kBq of activity of the fluorinated compound was injected into each mouse. n=3 mice were used at every time point. After injection of the F18-labeled compound, mice were sacrificed at the timepoints indicated. All organs were removed and radioactivity was determined using a γ-counter. […] Clearance of radioactivity takes place via the kidneys, with 67.9% of activity being excreted at 1 h p.i.

[1] = 1 h p.i., H460 tumor bearing mice

activity excreted via the kidneys [1]: 67.9%
uptake in the tumor [1]: 10.29 % injected dose per gram of tumor
retention of activity in the tumor (4 h p.i., H460 tumor bearing mice): 5.85 % injected dose per gram of tumor
tumor to blood ratio (H460 tumor bearing mice): 34.7
tumor to muscle ratio (H460 tumor bearing mice): 62.6
Tumor/Tissue bone (timepoint 0.25 h): 18.92
Tumor/Tissue brain (timepoint 0.25 h): 58.25
Tumor/Tissue heart (timepoint 0.25 h): 17.61
Tumor/Tissue kidney (timepoint 0.25 h): 0.60
Tumor/Tissue muscle (timepoint 0.25 h): 28.44
Tumor/Tissue skin (timepoint 0.25 h): 3.82
biodistribution adrenals (timepoint 0.25 h): 1.18 % Dosis/g
biodistribution blood (timepoint 0.25 h): 1.36 % Dosis/g
biodistribution bone (timepoint 0.25 h): 0.57 % Dosis/g
biodistribution brain (timepoint 0.25 h): 0.18 % Dosis/g
biodistribution fat (timepoint 0.25 h): 0.25 % Dosis/g
biodistribution gallbladder (timepoint 0.25 h): 1.08 % Dosis/g
biodistribution heart (timepoint 0.25 h): 0.60 % Dosis/g
biodistribution intestine (timepoint 0.25 h): 2.34 % Dosis/g
biodistribution kidney (timepoint 0.25 h): 17.49 % Dosis/g
biodistribution lung (timepoint 0.25 h): 3.22 % Dosis/g
biodistribution muscle (timepoint 0.25 h): 0.37 % Dosis/g
biodistribution ovaries (timepoint 0.25 h): 4.04 % Dosis/g
biodistribution pancreas (timepoint 0.25 h): 26.85 % Dosis/g
biodistribution skin (timepoint 0.25 h): 2.82 % Dosis/g
biodistribution spleen (timepoint 0.25 h): 5.15 % Dosis/g
biodistribution stomach (timepoint 0.25 h): 10.27 % Dosis/g
biodistribution tail (timepoint 0.25 h): 8.12 % Dosis/g
biodistribution thyroid (timepoint 0.25 h): 2.05 % Dosis/g
biodistribution tumor (timepoint 0.25 h): 10.58 % Dosis/g
biodistribution uterus (timepoint 0.25 h): 4.37 % Dosis/g
summary: urine (timepoint 0.25 h): 30.17
summary: carcass (timepoint 0.25 h): 18.07
summary: organs (timepoint 0.25 h): 39.99
summary: recovery (timepoint 0.25 h): 88.24
Tumor/Tissue bone (timepoint 0.5 h): 15.47
Tumor/Tissue brain (timepoint 0.5 h): 69.00
Tumor/Tissue heart (timepoint 0.5 h): 34.35
Tumor/Tissue kidney (timepoint 0.5 h): 1.43
Tumor/Tissue muscle (timepoint 0.5 h): 54.98
Tumor/Tissue skin (timepoint 0.5 h): 3.20
biodistribution adrenals (timepoint 0.5 h): 0.67 % Dosis/g
biodistribution blood (timepoint 0.5 h): 0.45 % Dosis/g
biodistribution bone (timepoint 0.5 h): 0.53 % Dosis/g
biodistribution brain (timepoint 0.5 h): 0.12 % Dosis/g
biodistribution fat (timepoint 0.5 h): 0.18 % Dosis/g
biodistribution gallbladder (timepoint 0.5 h): 0.47 % Dosis/g
biodistribution heart (timepoint 0.5 h): 0.24 % Dosis/g
biodistribution intestine (timepoint 0.5 h): 1.96 % Dosis/g
biodistribution kidney (timepoint 0.5 h): 5.64 % Dosis/g
biodistribution lung (timepoint 0.5 h): 1.62 % Dosis/g
biodistribution muscle (timepoint 0.5 h): 0.15 % Dosis/g
biodistribution ovaries (timepoint 0.5 h): 6.23 % Dosis/g
biodistribution pancreas (timepoint 0.5 h): 21.26 % Dosis/g
biodistribution skin (timepoint 0.5 h): 2.51 % Dosis/g
biodistribution spleen (timepoint 0.5 h): 4.37 % Dosis/g
biodistribution stomach (timepoint 0.5 h): 7.82 % Dosis/g
biodistribution tail (timepoint 0.5 h): 5.67 % Dosis/g
biodistribution thyroid (timepoint 0.5 h): 1.58 % Dosis/g
biodistribution tumor (timepoint 0.5 h): 8.17 % Dosis/g
biodistribution uterus (timepoint 0.5 h): 2.63 % Dosis/g
summary: faeces (timepoint 0.5 h): 0%
summary: urine (timepoint 0.5 h): 48.69
summary: carcass (timepoint 0.5 h): 10.51
summary: organs (timepoint 0.5 h): 32.54
summary: recovery (timepoint 0.5 h): 91.75
Tumor/Tissue bone (timepoint 1.0 h): 22.16
Tumor/Tissue brain (timepoint 1.0 h): 93.25
Tumor/Tissue heart (timepoint 1.0 h): 57.45
Tumor/Tissue kidney (timepoint 1.0 h): 3.31
Tumor/Tissue muscle (timepoint 1.0 h): 62.55
Tumor/Tissue skin (timepoint 1.0 h): 4.24
biodistribution adrenals (timepoint 1.0 h): 0.61 % Dosis/g
biodistribution blood (timepoint 1.0 h): 0.30 % Dosis/g
biodistribution bone (timepoint 1.0 h): 0.46 % Dosis/g
biodistribution brain (timepoint 1.0 h): 0.11 % Dosis/g
biodistribution fat (timepoint 1.0 h): 0.14 % Dosis/g
biodistribution gallbladder (timepoint 1.0 h): 0.57 % Dosis/g
biodistribution heart (timepoint 1.0 h): 0.18 % Dosis/g
biodistribution intestine (timepoint 1.0 h): 1.77 % Dosis/g
biodistribution kidney (timepoint 1.0 h): 3.10 % Dosis/g
biodistribution lung (timepoint 1.0 h): 1.43 % Dosis/g
biodistribution muscle (timepoint 1.0 h): 0.16 % Dosis/g
biodistribution ovaries (timepoint 1.0 h): 1.86 % Dosis/g
biodistribution pancreas (timepoint 1.0 h): 16.68 % Dosis/g
biodistribution skin (timepoint 1.0 h): 2.43 % Dosis/g
biodistribution spleen (timepoint 1.0 h): 2.87 % Dosis/g
biodistribution stomach (timepoint 1.0 h): 4.47 % Dosis/g
biodistribution tail (timepoint 1.0 h): 2.33 % Dosis/g
biodistribution thyroid (timepoint 1.0 h): 1.57 % Dosis/g
biodistribution tumor (timepoint 1.0 h): 10.29 % Dosis/g
biodistribution uterus (timepoint 1.0 h): 2.45 % Dosis/g
summary: faeces (timepoint 1.0 h): 0%
summary: urine (timepoint 1.0 h): 67.90
summary: carcass (timepoint 1.0 h): 9.28
summary: organs (timepoint 1.0 h): 25.76
summary: recovery (timepoint 1.0 h): 102.93
Tumor/Tissue bone (timepoint 2.0 h): 18.25
Tumor/Tissue brain (timepoint 2.0 h): 87.08
Tumor/Tissue heart (timepoint 2.0 h): 54.23
Tumor/Tissue kidney (timepoint 2.0 h): 6.15
Tumor/Tissue muscle (timepoint 2.0 h): 62.45
Tumor/Tissue skin (timepoint 2.0 h): 3.59
biodistribution adrenals (timepoint 2.0 h): 0.52 % Dosis/g
biodistribution blood (timepoint 2.0 h): 0.15 % Dosis/g
biodistribution bone (timepoint 2.0 h): 0.40 % Dosis/g
biodistribution brain (timepoint 2.0 h): 0.08 % Dosis/g
biodistribution fat (timepoint 2.0 h): 0.07 % Dosis/g
biodistribution gallbladder (timepoint 2.0 h): 0.48 % Dosis/g
biodistribution heart (timepoint 2.0 h): 0.13 % Dosis/g
biodistribution intestine (timepoint 2.0 h): 1.23 % Dosis/g
biodistribution kidney (timepoint 2.0 h): 1.17 % Dosis/g
biodistribution lung (timepoint 2.0 h): 1.04 % Dosis/g
biodistribution muscle (timepoint 2.0 h): 0.11 % Dosis/g
biodistribution ovaries (timepoint 2.0 h): 1.58 % Dosis/g
biodistribution pancreas (timepoint 2.0 h): 7.70 % Dosis/g
biodistribution skin (timepoint 2.0 h): 1.97 % Dosis/g
biodistribution stomach (timepoint 2.0 h): 3.35 % Dosis/g
biodistribution tail (timepoint 2.0 h): 1.64 % Dosis/g
biodistribution thyroid (timepoint 2.0 h): 1.37 % Dosis/g
biodistribution tumor (timepoint 2.0 h): 6.72 % Dosis/g
biodistribution uterus (timepoint 2.0 h): 2.72 % Dosis/g
summary: faeces (timepoint 2.0 h): 0.01%
summary: urine (timepoint 2.0 h): 68.67
summary: carcass (timepoint 2.0 h): 9.12
summary: organs (timepoint 2.0 h): 17.68
summary: recovery (timepoint 2.0 h): 94.72
Tumor/Tissue bone (timepoint 4.0 h): 15.04
Tumor/Tissue brain (timepoint 4.0 h): 83.21
Tumor/Tissue heart (timepoint 4.0 h): 68.93
Tumor/Tissue kidney (timepoint 4.0 h): 8.78
Tumor/Tissue muscle (timepoint 4.0 h): 64.19
Tumor/Tissue skin (timepoint 4.0 h): 5.40
biodistribution adrenals (timepoint 4.0 h): 0.61 % Dosis/g
biodistribution blood (timepoint 4.0 h): 0.10 % Dosis/g
biodistribution bone (timepoint 4.0 h): 0.39 % Dosis/g
biodistribution brain (timepoint 4.0 h): 0.08 % Dosis/g
biodistribution fat (timepoint 4.0 h): 0.06 % Dosis/g
biodistribution gallbladder (timepoint 4.0 h): 0.70 % Dosis/g
biodistribution heart (timepoint 4.0 h): 0.08 % Dosis/g
biodistribution intestine (timepoint 4.0 h): 0.97 % Dosis/g
biodistribution kidney (timepoint 4.0 h): 0.72 % Dosis/g
biodistribution lung (timepoint 4.0 h): 0.81 % Dosis/g
biodistribution muscle (timepoint 4.0 h): 0.09 % Dosis/g
biodistribution ovaries (timepoint 4.0 h): 2.18 % Dosis/g
biodistribution pancreas (timepoint 4.0 h): 4.51 % Dosis/g
biodistribution skin (timepoint 4.0 h): 1.31 % Dosis/g
biodistribution stomach (timepoint 4.0 h): 1.27 % Dosis/g
biodistribution tail (timepoint 4.0 h): 3.43 % Dosis/g
biodistribution thyroid (timepoint 4.0 h): 0.98 % Dosis/g
biodistribution tumor (timepoint 4.0 h): 5.85 % Dosis/g
biodistribution uterus (timepoint 4.0 h): 1.41 % Dosis/g
summary: faeces (timepoint 4.0 h): 2.1%
summary: urine (timepoint 4.0 h): 77.27
summary: carcass (timepoint 4.0 h): 4.03
summary: organs (timepoint 4.0 h): 12.00
summary: recovery (timepoint 4.0 h): 94.87
SMILES: N[C@@H](CCC(CCC[18F])C(=O)O)C(=O)O (stereo partly drawn) [(2S)-2-amino-5-[3-[^18F]fluoropropyl]hexanedioic acid]
